From patent publication US20180228799A1, “Treatment for Neurological and Mental Disorders” (PSYCHOGENICS, INC., priority 2008, published 2018)

Columns and labels:
5-HT1A/1B receptor = settings: cited from earlier work
rats = experiment: Radial arm maze, scopolamine-induced working memory deficit; assay type: in vivo; settings: eltoprazine 0.3 mg/kg PO + scopolamine 0.5 mg/kg IP, ANOVA, FIG. 2
Protocol: Several mazes, such as the radial arm maze (RAM) have been adapted to assess working memory in rodents. The RAM consists of eight long runways radiating out in a circle from a central compartment. In the RAM rats learn to retrieve food rewards from all or a sub-set of the arms. Working memory is assessed by measuring entries into previously baited arms within a given trial. […] Hippocampal lesions produce deficits both in adults and in the neonatal hippocampal lesion model of schizophrenia.
For training, food deprived rats were placed in an enclosed cylinder in the center of the maze for 20 s, prior to being allowed to explore the maze by removing the cylinder. Each radial arm is baited with a food reward. Animals were given a maximum of 5 minutes to retrieve all food rewards. This training continued once daily for three weeks until animals met the performance criteria for successful acquisition of the task.
Four parameters were recorded to assess the performance of the rat: (1) the number of errors, which is defined as entering an arm that had already been entered, (2) the number of consecutive entries into un-visited arms before the first error occurred (entries to repeat), (3) latency to complete the task, and (4) the total number of arm entries before all food in the eight arms is collected or the maximum session duration is reached. […]

5-HT1A = biological target: T1, 5-HT1A (Homo sapiens, UniProt P08908); settings: Schipper et al.; cited from earlier work
T1 sequence (P08908 1-422): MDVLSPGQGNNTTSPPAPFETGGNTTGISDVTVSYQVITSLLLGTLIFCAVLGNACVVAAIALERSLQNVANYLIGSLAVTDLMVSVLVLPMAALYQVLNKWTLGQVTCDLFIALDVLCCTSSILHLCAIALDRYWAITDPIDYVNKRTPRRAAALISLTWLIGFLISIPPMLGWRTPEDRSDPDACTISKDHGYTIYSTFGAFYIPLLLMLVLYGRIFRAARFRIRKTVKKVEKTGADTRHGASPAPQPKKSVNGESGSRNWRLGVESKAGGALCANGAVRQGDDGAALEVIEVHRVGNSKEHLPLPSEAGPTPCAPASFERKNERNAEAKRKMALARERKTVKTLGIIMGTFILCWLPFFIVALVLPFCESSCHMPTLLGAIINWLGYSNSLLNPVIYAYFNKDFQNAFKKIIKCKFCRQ

mice = experiment: Timing/Peak Procedure operant test (attention, impulsivity); assay type: in vivo; settings: 0.1 mg/kg IP, FIG. 1
Excerpt: The Timing/Peak Procedure test is an operant test in which mice are trained to respond to a food reward at a fixed time interval of 30 sec. Mice learn to increase their responding around the 30 sec time period. This test assesses impulsivity, attention and timing perception. A high peak of responding at the 30 sec interval and narrow spread are signatures of the animal's improved attention and time perception.
In brief, mice were placed in a chamber and trained to lever press for food. After training, animals learn to respond after a fixed interval of 30 sec has elapsed as only this fixed interval response produces a reward. With reinforcement delivery the lever is retracted and an inter-trial-interval commences. Once the animal was trained on the reinforced trials, “peak trials” or unreinforced trials are introduced and intermixed with reinforced trials. During these empty trials, no responses were reinforced and the trial lasts for 120 sec (i.e., the lever is extended but reinforcement is not presented). After the 120 sec elapses, the trial terminated, the lever was retracted and the inter-trial-interval started as before. The animals therefore learned that if after a period of 30 sec, no food has been presented there will be no reinforcement delivery until the lever is retracted and the trial starts again.
To perform well on this task, animals need to learn an association between a response (lever pressing) and the delivery of reinforcement (condensed milk), they need to perceive and remember time, they need to act on the remembered time by responding or by inhibiting a response and finally they need to compare the elapsed time during a trial with their memory for the time for reinforcement. A true cognitive enhancer therefore should decrease responding after reinforcement time, without affecting the peak time, i.e., sharpening the curve and reducing the spread in the response curve. A sharpened curve is indicative of heightened attentional processes.

[1] = system: symptoms of ADHD in adults; experiment: Clinical Global Impressions-Improvement (CGI-I), same trial; assay type: in vivo, human; settings: 14 days; for CGI-I, percent of subjects showing improvement: b136 all subjects
Protocol: This double-blind, multiple-dose, placebo-controlled, crossover study was conducted to assess the effects of 14 days of oral eltoprazine treatment in 48 adults with ADHD. Subjects eligible for study enrollment were to have met Diagnostic and Statistical Manual of Mental Disorders, Fourth Edition, Text Revision (DSM-IV-TR) criteria for ADHD. Assessment was to be made by clinical history, a Structured Clinical Interview for DSM-IV Axis Disorders-Research Version (SCID-RV), and a Conners' Adult ADHD Diagnostic Interview for DSM IV (CAADID).
Oral doses of eltoprazine hydrochloride were 5 mg/day or 10 mg/day for 14 consecutive days (i.e., 2.5 or 5 mg twice daily (bid), respectively). Eltoprazine hydrochloride was administered in gelatin capsules with calcium hydrogen phosphate, 2H2O, maize starch NF, polyethylene glycol 6000 NF and magnesium stearate NF as excipients.
Secondary endpoints were evaluated with the Clinical Global Impressions-Improvement (CGI-I) and Continuous Performance Test. (CPT). The CGI-I test is used to determine the […] of improvement.

5-HT1D receptor = settings: compared with serotonin; Schipper et al.; cited from earlier work
5-HT1 = settings: selective with respect to all receptors other than 5-HT1; cited from earlier work

c1cc2c(c(N3CCNCC3)c1)OCCO2 [Eltoprazine, 1-(2,3-dihydro-1,4-benzodioxanyl-5-yl) piperazine]
Functional mode of action (5-HT1A/1B receptor): mixed 5-HT1A/1B receptor agonist | Effect on scopolamine-induced decrease of entries to repeat (rats): attenuated | Binding affinity for 5-HT1A (5-HT1A): roughly equipotent affinity | Peak of responding (mice): sharpens the peak of responding | Spread of the response curve (mice): significantly reduces the spread | Peak of responding (mice; listed as eltoprazine): sharpened the peak of responding | Effect following chronic administration (mice; chronic administration): no loss of effect | CGI-I Mean Improvement (S.D.) ([1]; 5 mg/day, n = 38): 2.6 (1.2) | CGI-I, Number of Patients Improved ([1]; 5 mg/day, n = 38): 26 | CGI-I, Number of Patients Not Improved ([1]; 5 mg/day, n = 38): 12 | CGI-I, percent of subjects showing improvement ([1]; 5 mg/day, b141/b146 subgroup with baseline score >40): 62% | CGI-I Mean Improvement (S.D.) ([1]; 10 mg/day, n = 37): 2.7 (0.9) | CGI-I, Number of Patients Improved ([1]; 10 mg/day, n = 37): 30 | CGI-I, Number of Patients Not Improved ([1]; 10 mg/day, n = 37): 7 | CGI-I, percent of subjects showing improvement ([1]; 10 mg/day, b141 subgroup with baseline score >40): 71% | CGI reduction in severity score ([1]; more severely affected population (baseline score >40), 5 mg/day): 14% | Binding affinity for the 5-HT1D receptor (5-HT1D receptor): relatively low affinity | Binding selectivity (5-HT1): selective 5-HT1 ligand
